Test system: tau protein
Assay: Tau protein in vitro degradation assay (Western blot, Tau-13 antibody)
Format: cell-based, human
Conditions: SK-N-SH cells; 72 hours of incubation; tested at 300 nM, 100 nM, 33 nM and 11 nM; Western blot, Tau-13 antibody
Method: Tau Protein In Vitro Degradation Assay
To determine effect of PROTACs on tau protein degradation SK-N-SH cells were seeded in a 24-well tissue culture-treated plate for at least 18-hours prior to compound addition. Tau PROTACs were evaluated for tau degradation by lysing the cells in lysis buffer with protease inhibitors following a 72-hour incubation with tau PROTACs at 1000 nM, 300 nM and 100 nM for Table 1 and 300 nM, 100 nM, 33 nM and 11 nM for Table 2. Cell lysates were run on standard SDS-PAGE gels, and tau levels were detected by Western blotting using Tau-13 antibody from Abcam (Cambridge, UK) that binds to all forms of human tau.

Row | Structure (SMILES) | Degradation activity* (highest amount of degradation observed at any dosage; tau protein remaining) | Degradation activity (tau protein remaining; highest amount of degradation observed at any dosage)
1 | Cn1c2ccncc2c2ccc(-c3ccc(OCCOCCOCCOCCCCC(Oc4ccc5c(c4)C(=O)N(C4CCC(=O)NC4=O)C5=O)C(F)(F)F)nc3)cc21 (stereo not shown) [Compound 129, 2-(2,6-dioxopiperidin-3-yl)-5-((1,1,1-trifluoro-6-(2-(2-(2-((5-(5-methyl-5H-pyrido[4,3-b]indol-7-yl)pyridin-2-yl)oxy)ethoxy)ethoxy)ethoxy)hexan-2-yl)oxy)isoindoline-1,3-dione] | C (>80% tau protein remaining after 72 hours of incubation with the test compound) | –
2 | Cn1c2ccncc2c2ccc(-c3ccc(O[C@H]4C[C@H](Oc5ccnc(OCCCCCCOc6ccc7c(c6)C(=O)N(C6CCC(=O)NC6=O)C7=O)c5)C4)nc3)cc21 (stereo partly shown) [Compound 109, 2-(2,6-dioxopiperidin-3-yl)-5-((6-((4-((1r,3r)-3-((5-(5-methyl-5H-pyrido[4,3-b]indol-7-yl)pyridin-2-yl)oxy)cyclobutoxy)pyridin-2-yl)oxy)hexyl)oxy)isoindoline-1,3-dione] | C (>80% tau protein remaining after 72 hours of incubation with the test compound) | –
3 | Cn1c2ccncc2c2ccc(-c3ccc(O[C@H]4C[C@H](OC5CCN(c6cc(OCCOc7ccc8c(c7)C(=O)N(C7CCC(=O)NC7=O)C8=O)cnn6)CC5)C4)nc3)cc21 (stereo partly shown) [Compound 158, 2-(2,6-dioxopiperidin-3-yl)-5-(2-((6-(4-((1r,3r)-3-((5-(5-methyl-5H-pyrido[4,3-b]indol-7-yl)pyridin-2-yl)oxy)cyclobutoxy)piperidin-1-yl)pyridazin-4-yl)oxy)ethoxy)isoindoline-1,3-dione] | C (>80% tau protein remaining after 72 hours of incubation with the test compound) | –
4 | Cn1c2ccncc2c2ccc(-c3ccc(OCCCCCOCCCCCO[C@H]4C[C@H](Oc5ccc6c(c5)C(=O)N(C5CCC(=O)NC5=O)C6=O)C4)nc3)cc21 (stereo partly shown) [Compound 85, 2-(2,6-dioxopiperidin-3-yl)-5-((1r,3r)-3-((5-((5-((5-(5-methyl-5H-pyrido[4,3-b]indol-7-yl)pyridin-2-yl)oxy)pentyl)oxy)pentyl)oxy)cyclobutoxy)isoindoline-1,3-dione] | A (≤50% tau protein remaining after 72 hours of incubation with the test compound) | –
5 | Cn1c2ccncc2c2ccc(-c3ccc(OCC#CCOCCCCOCCCCOc4ccc5c(c4)C(=O)N(C4CCC(=O)NC4=O)C5=O)nc3)cc21 (stereo not shown) [Compound 90, 2-(2,6-dioxopiperidin-3-yl)-5-(4-(4-((4-((5-(5-methyl-5H-pyrido[4,3-b]indol-7-yl)pyridin-2-yl)oxy)but-2-yn-1-yl)oxy)butoxy)butoxy)isoindoline-1,3-dione] | A (≤50% tau protein remaining after 72 hours of incubation with the test compound) | –
6 | Cn1c2ccncc2c2ccc(-c3ccc(C#CCN4CCN(CCCOC5CN(c6ccc7c(c6)C(=O)N(C6CCC(=O)NC6=O)C7=O)C5)CC4)nc3)cc21 (stereo not shown) [Compound 76, 2-(2,6-dioxopiperidin-3-yl)-5-(3-(3-(4-(3-(5-(5-methyl-5H-pyrido[4,3-b]indol-7-yl)pyridin-2-yl)prop-2-yn-1-yl)piperazin-1-yl)propoxy)azetidin-1-yl)isoindoline-1,3-dione] | C (>80% tau protein remaining after 72 hours of incubation with the test compound) | –
7 | Cn1c2ccncc2c2ccc(-c3ccc(O[C@H]4C[C@H](OCCCC(F)(F)COC5CC6(C5)CN(c5ccc7c(c5)C(=O)N(C5CCC(=O)NC5=O)C7=O)C6)C4)nc3)cc21 (stereo partly shown) [Compound 197, 5-(6-((2,2-difluoro-5-((1r,3r)-3-((5-(5-methyl-5H-pyrido[4,3-b]indol-7-yl)pyridin-2-yl)oxy)cyclobutoxy)pentyl)oxy)-2-azaspiro[3.3]heptan-2-yl)-2-(2,6-dioxopiperidin-3-yl)isoindoline-1,3-dione] | – | C (>80% tau protein remaining after 72 hours of incubation with the test compound)
8 | Cn1c2ccncc2c2ccc(-c3ccc(O[C@H]4C[C@H](Oc5ccc(CCCCCCOc6ccc7c(c6)C(=O)N(C6CCC(=O)NC6=O)C7=O)nn5)C4)nc3)cc21 (stereo partly shown) [Compound 149, 2-(2,6-dioxopiperidin-3-yl)-5-((6-(6-((1r,3r)-3-((5-(5-methyl-5H-pyrido[4,3-b]indol-7-yl)pyridin-2-yl)oxy)cyclobutoxy)pyridazin-3-yl)hexyl)oxy)isoindoline-1,3-dione] | B (≤80% and >50% tau protein remaining after 72 hours of incubation with the test compound) | –
9 | Cn1c2ccncc2c2ccc(-c3ccc(OCCOCCOCCOCCOCCOc4ccc5c(c4)C(=O)N(C4CCC(=O)NC4=O)C5=O)nc3C(F)(F)F)cc21 (stereo not shown) [Compound 143, 2-(2,6-dioxopiperidin-3-yl)-5-((14-((5-(5-methyl-5H-pyrido[4,3-b]indol-7-yl)-6-(trifluoromethyl)pyridin-2-yl)oxy)-3,6,9,12-tetraoxatetradecyl)oxy)isoindoline-1,3-dione] | B (≤80% and >50% tau protein remaining after 72 hours of incubation with the test compound) | –
10 | Cn1c2ccncc2c2ccc(-c3ccc(O[C@H]4C[C@H](OCCOc5ccc(OC6CN(c7ccc8c(c7)C(=O)N(C7CCC(=O)NC7=O)C8=O)C6)nc5)C4)nc3)cc21 (stereo partly shown) [Compound 155, 2-(2,6-dioxopiperidin-3-yl)-5-(3-((5-(2-((1r,3r)-3-((5-(5-methyl-5H-pyrido[4,3-b]indol-7-yl)pyridin-2-yl)oxy)cyclobutoxy)ethoxy)pyridin-2-yl)oxy)azetidin-1-yl)isoindoline-1,3-dione] | C (>80% tau protein remaining after 72 hours of incubation with the test compound) | –
11 | Cn1c2ccncc2c2ccc(-c3cnc(O[C@H]4C[C@H](Oc5ccc(C#CCN6CC(Oc7ccc8c(c7)C(=O)N(C7CCC(=O)NC7=O)C8=O)C6)nc5)C4)c(C(F)(F)F)c3)cc21 (stereo partly shown) [Compound 142, 2-(2,6-dioxopiperidin-3-yl)-5-((1-(3-(5-((1r,3r)-3-((5-(5-methyl-5H-pyrido[4,3-b]indol-7-yl)-3-(trifluoromethyl)pyridin-2-yl)oxy)cyclobutoxy)pyridin-2-yl)prop-2-yn-1-yl)azetidin-3-yl)oxy)isoindoline-1,3-dione] | C (>80% tau protein remaining after 72 hours of incubation with the test compound) | –

Same assay, conditions: SK-N-SH cells; 72 hours of incubation; tested at 1000 nM, 300 nM and 100 nM

Row | Structure (SMILES) | Activity* (highest amount of degradation observed at any dosage, as tau protein remaining)
12 | Cc1ncoc1-c1ccc(CNC(=O)[C@@H]2C[C@@H](O)CN2C(=O)[C@@H](NC(=O)COCCOCCOCC(=O)N2CCN(c3ccn4c(n3)nc3ccccc34)CC2)C(C)(C)C)cc1 [Compound 13, (2S,4R)-1-((S)-14-(4-(benzo[4,5]imidazo[1,2-a]pyrimidin-2-yl)piperazin-1-yl)-2-(tert-butyl)-4,14-dioxo-6,9,12-trioxa-3-azatetradecanoyl)-4-hydroxy-N-(4-(4-methyloxazol-5-yl)benzyl)pyrrolidine-2-carboxamide] | C (>80% tau protein remaining after 72 hours of incubation with the test compound)
13 | Cc1ncsc1-c1ccc(CNC(=O)[C@@H]2C[C@@H](O)CN2C(=O)[C@@H](NC(=O)COCCOCCOCCOc2ccc3nc(-c4ccc(N(C)C)cc4)ccc3c2)C(C)(C)C)cc1 [Compound 29, (2S,4R)-1-((S)-2-tert-butyl-14-(2-(4-(dimethylamino)phenyl)quinolin-6-yloxy)-4-oxo-6,9,12-trioxa-3-azatetradecane)-4-hydroxy-N-(4-(4-methylthiazol-5-yl)benzyl)pyrrolidine-2-carboxamide] | C (>80% tau protein remaining after 72 hours of incubation with the test compound)
14 | Cc1ncsc1-c1ccc([C@H](C)NC(=O)[C@@H]2C[C@@H](O)CN2C(=O)[C@@H](NC(=O)COCCOCCOCC(=O)N2CCN(c3ccn4c(n3)nc3ccccc34)CC2)C(C)(C)C)cc1 [Compound 17, (2S,4R)-1-((S)-14-(4-(benzo[4,5]imidazo[1,2-a]pyrimidin-2-yl)piperazin-1-yl)-2-(tert-butyl)-4,14-dioxo-6,9,12-trioxa-3-azatetradecanoyl)-4-hydroxy-N—((S)-1-(4-(4-methylthiazol-5-yl)phenyl)ethyl)pyrrolidine-2-carboxamide] | C (>80% tau protein remaining after 72 hours of incubation with the test compound)
15 | Cc1ncsc1-c1ccc(CNC(=O)[C@@H]2C[C@@H](O)CN2C(=O)[C@@H](NC(=O)COCCOCCOCCOCCN2CCN(c3ccn4c(n3)nc3ccccc34)CC2)C(C)(C)C)cc1 [Compound 23, (2S,4R)-1-((5)-17-(4-(benzo[4,5]imidazo[1,2-a]pyrimidin-2-yl)piperazin-1-yl)-2-(tert-butyl)-4-oxo-6,9,12,15-tetraoxa-3-azaheptadecanoyl)-4-hydroxy-N-(4-(4-methylthiazol-5-yl)benzyl)pyrrolidine-2-carboxamide] | C (>80% tau protein remaining after 72 hours of incubation with the test compound)
16 | Cc1ncsc1-c1ccc([C@H](C)NC(=O)[C@@H]2C[C@@H](O)CN2C(=O)[C@@H](NC(=O)COCCOCCOCCOCC(=O)N2CCN(c3ccn4c(n3)nc3ccccc34)CC2)C(C)(C)C)cc1 [Compound 18, (2S,4R)-1-((S)-17-(4-(benzo[4,5]imidazo[1,2-a]pyrimidin-2-yl)piperazin-1-yl)-2-(tert-butyl)-4,17-dioxo-6,9,12,15-tetraoxa-3-azaheptadecanoyl)-4-hydroxy-N—((S)-1-(4-(4-methylthiazol-5-yl)phenyl)ethyl)pyrrolidine-2-carboxamide] | C (>80% tau protein remaining after 72 hours of incubation with the test compound)
